Like-named read-outs stand apart in the source and are kept apart here.

Drawing on patent US9670227B2, “Thienopyrimidine derivatives, a process for their preparation and pharmaceutical compositions containing them” (LES LABORATOIRES SERVIER, priority 2013, dated 2017), this text covers IC50 for 14 molecules.

The subject of assay [1] is H929 multiple myeloma tumour line. As to the kind of experiment: In vitro cytotoxicity, Microculture Tetrazolium Assay. The class given is cell-based. To be noted: Homo sapiens, NCI-H929, 48 h, read-out: IC50 (μM) MTT H929. How it is done:
The cytotoxicity studies were carried out on the H929 multiple myeloma tumour line.
The cells are distributed onto microplates and exposed to the test compounds for 48 hours.

The next assay has as its target Mcl-1 protein (UniProtKB primary accession number: Q07820) (Homo sapiens, UniProt Q07820). As to the kind of experiment: Inhibition of Mcl-1 by fluorescence polarisation, Method 1. The class given is binding. In outline:
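FP competition, 11-point compound titration in 5% final DMSO; protein and labelled probe at 5 nM and 1 nM final in HEPES/NaCl/Tween 20 buffer, pH 7.4.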
A general note: In fluorescence polarisation assays a small probe gives low polarisation when free and higher when bound to something large.

Setting [2] is: H929 cells, 48 hours exposure, MTT.
Where [3] appears, read: fluorescence polarisation test, Method 2 values are underlined in the patent (underlining not visible here), read-out: IC50 (M) Mcl-1 FP.
The mark [4] stands for this setting: fluorescence polarisation, Method 1, or Method 2, read-out: IC50 (M) Mcl-1 FP.

Mcl-1 protein, sequence (Q07820 whole entry): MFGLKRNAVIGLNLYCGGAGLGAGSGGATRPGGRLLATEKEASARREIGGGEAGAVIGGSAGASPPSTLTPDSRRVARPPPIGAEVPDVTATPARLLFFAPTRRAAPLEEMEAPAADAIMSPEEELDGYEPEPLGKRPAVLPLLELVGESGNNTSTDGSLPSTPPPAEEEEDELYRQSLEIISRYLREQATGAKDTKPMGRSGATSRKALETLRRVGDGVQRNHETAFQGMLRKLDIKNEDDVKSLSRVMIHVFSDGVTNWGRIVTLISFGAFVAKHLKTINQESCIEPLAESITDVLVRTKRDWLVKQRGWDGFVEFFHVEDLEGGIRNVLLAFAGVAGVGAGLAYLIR

As to `Cc1c(-c2c(-c3ccco3)sc3ncnc(OC(Cc4ccccc4OCc4cncs4)C(=O)O)c23)ccc(OCCN2CCN(C)CC2)c1Cl` [Example 278, (2R)-2-{[(5Sa)-5-{3-chloro-2-methyl-4-[2-(4-methylpiperazin-1-yl)ethoxy]phenyl}-6-(furan-2-yl)thieno[2,3-d]pyrimidin-4-yl]oxy}-3-[2-(1,3-thiazol-5-ylmethoxy)phenyl]propanoic acid], the IC50 (as a rule, the concentration needed to halve the response being measured) in assay [1] (setting [2]) was found to be 0.202 µM; on Mcl-1 protein (setting [3]), 6.7e-09 M.

With `COc1ccccc1-c1nccc(COc2ccccc2C[C@@H](Oc2ncnc3sc(-c4ccc(F)cc4)c(-c4ccc(OCCN5CCN(C)CC5)c(Cl)c4OC)c23)C(=O)O)n1` [Example 837, (2R)-2-{[5-{3-chloro-2-methoxy-4-[2-(4-methylpiperazin-1-yl)ethoxy]phenyl}-6-(4-fluorophenyl)thieno[2,3-d]pyrimidin-4-yl]oxy}-3-(2-{[2-(2-methoxyphenyl)pyrimidin-4-yl]methoxy}phenyl)propanoic acid], the IC50 in assay [1] (H929 cells, 48 hours exposure, cell viability) was found to be 0.003 µM; on Mcl-1 protein (fluorescence polarisation test, Method 1, or Method 2 where the value is underlined (underlining not visible), read-out: IC50 (M) Mcl-1 FP) it was 2.35e-09 M.

As to `Cc1c(-c2c(-c3ccc(F)o3)sc3ncnc(OC(Cc4ccccc4OCCN(C)C)C(=O)O)c23)ccc(OCCN2CCN(C)CC2)c1Cl` [Example 192, (2R)-2-{[(5Sa)-5-{3-chloro-2-methyl-4-[2-(4-methylpiperazin-1-yl)ethoxy]phenyl}-6-(5-fluorofuran-2-yl)thieno[2,3-d]pyrimidin-4-yl]oxy}-3-{2-[2-(dimethylamino)ethoxy]phenyl}propanoic acid], the IC50 in assay [1] (setting [2]) turned out to be 0.848 µM; on Mcl-1 protein (setting [3]), 7.7e-09 M.

As to `Cc1c(-c2c(-c3ccc(F)cc3)sc3ncnc(OC(Cc4ccccc4OCc4ccnc(N5CCOCC5)n4)C(=O)O)c23)ccc(OCCN(C)C)c1Cl` [Example 129, (2R)-2-{[(5Sa)-5-{3-chloro-4-[2-(dimethylamino)ethoxy]-2-methylphenyl}-6-(4-fluorophenyl)thieno[2,3-d]pyrimidin-4-yl]oxy}-3-(2-{[2-(morpholin-4-yl)pyrimidin-4-yl]methoxy}phenyl)propanoic acid], the IC50 came out at 0.069 µM in assay [1] (setting [2]) and 2.2e-09 M at Mcl-1 protein (setting [3]).

Consider `COc1ccccc1CC(Oc1ncnc2sc(-c3ccc(F)cc3)c(-c3ccc(OCCN4CCN(C)CC4)c(Cl)c3Cl)c12)C(=O)O` [Example 647, (2R)-2-{[(5Sa)-5-{2,3-dichloro-4-[2-(4-methylpiperazin-1-yl)ethoxy]phenyl}-6-(4-fluorophenyl)thieno[2,3-d]pyrimidin-4-yl]oxy}-3-(2-methoxyphenyl)propanoic acid], for which the IC50 in assay [1] (setting [2]) came out at 0.498 µM; on Mcl-1 protein (setting [4]), 2.3e-08 M.

For the molecule `Cc1c(-c2c(-c3ccc(F)cc3)sc3ncnc(OC(Cc4ccccc4OCc4ccnc(-c5ccc(C(F)(F)F)nc5)n4)C(=O)O)c23)ccc(OCCN2CCN(C)CC2)c1Cl` [Example 109, (2R)-2-{[(5Sa)-5-{3-chloro-2-methyl-4-[2-(4-methylpiperazin-1-yl)ethoxy]phenyl}-6-(4-fluorophenyl)thieno[2,3-d]pyrimidin-4-yl]oxy}-3-[2-({2-[6-(trifluoromethyl)pyridin-3-yl]pyrimidin-4-yl}methoxy)phenyl]propanoic acid], the results for the IC50 (in assay [1] (setting [2]); at Mcl-1 protein (setting [3])) were 0.108 µM and 8.4e-09 M, respectively.

Take `COc1ccc(COc2ccccc2CC(Oc2ncnc3sc(-c4ccco4)c(-c4ccc(OCCN5CCN(C)CC5)c(Cl)c4C)c23)C(=O)O)nc1` [Example 233, (2R)-2-{[(5Sa)-5-{3-chloro-2-methyl-4-[2-(4-methylpiperazin-1-yl)ethoxy]phenyl}-6-(furan-2-yl)thieno[2,3-d]pyrimidin-4-yl]oxy}-3-{2-[(5-methoxypyridin-2-yl)methoxy]phenyl}propanoic acid]: the IC50 in assay [1] (setting [2]) amounted to 0.099 µM; on Mcl-1 protein (setting [3]), 3.4e-09 M.

In the case of `COc1ccccc1CC(Oc1ncnc2sc(C(C)(F)F)c(-c3ccc(OCCN4CCN(C)CC4)c(Cl)c3C)c12)C(=O)O` [Example 576, (2R)-2-{[(5Sa)-5-{3-chloro-2-methyl-4-[2-(4-methylpiperazin-1-yl)ethoxy]phenyl}-6-(1,1-difluoroethyl)thieno[2,3-d]pyrimidin-4-yl]oxy}-3-(2-methoxyphenyl)propanoic acid], the IC50 stood at 1.51 µM in assay [1] (setting [2]) and 6.2e-08 M at Mcl-1 protein (setting [4]).

As for `Cc1c(-c2c(-c3ccc(F)cc3)sc3ncnc(OC(Cc4ccccc4OCc4ccnc(-c5cccs5)n4)C(=O)O)c23)ccc(OCCN2CCN(C)CC2)c1Cl` [Example 33, (2R)-2-{[(5Sa)-5-{3-chloro-2-methyl-4-[2-(4-methylpiperazin-1-yl)ethoxy]phenyl}-6-(4-fluorophenyl)thieno[2,3-d]pyrimidin-4-yl]oxy}-3-(2-{[2-(thiophen-2-yl)pyrimidin-4-yl]methoxy}phenyl)propanoic acid], the results for the IC50 (in assay [1] (setting [2]); at Mcl-1 protein (setting [3])) were 0.017 µM and 7.8e-09 M, respectively.

Take `COCCOc1ccccc1CC(Oc1ncnc2sc(-c3ccc(F)c(OC)c3)c(-c3ccc(OCCN4CCN(C)CC4)c(Cl)c3C)c12)C(=O)O` [Example 387, (2R)-2-{[(5Sa)-5-{3-chloro-2-methyl-4-[2-(4-methylpiperazin-1-yl)ethoxy]phenyl}-6-(4-fluoro-3-methoxyphenyl)thieno[2,3-d]pyrimidin-4-yl]oxy}-3-[2-(2-methoxyethoxy)phenyl]propanoic acid]: the IC50 worked out at 0.202 µM in assay [1] and 4e-09 M on Mcl-1 protein (IC50 (M) Mcl-1 FP, fluorescence polarisation test, Method 2 values are underlined in the patent (underlining not visible here)).

For the molecule `CCn1nccc1COc1ccccc1CC(Oc1ncnc2sc(-c3ccco3)c(-c3ccc(OCCN4CCN(C)CC4)c(Cl)c3C)c12)C(=O)O` [Example 264, (2R)-2-{[(5Sa)-5-{3-chloro-2-methyl-4-[2-(4-methylpiperazin-1-yl)ethoxy]phenyl}-6-(furan-2-yl)thieno[2,3-d]pyrimidin-4-yl]oxy}-3-{2-[(1-ethyl-1H-pyrazol-5-yl)methoxy]phenyl}propanoic acid], the figures for the IC50 (in assay [1] (setting [2]); at Mcl-1 protein (setting [3])) were 0.034 µM and 9.1e-09 M, respectively.

For the molecule `Cc1c(-c2c(-c3ccc(F)cc3)sc3ncnc(OC(Cc4ccccc4OCc4ccnn4CCC(C)C)C(=O)O)c23)ccc(OCCN2CCN(C)CC2)c1Cl` [Example 82, (2R)-2-{[(5Sa)-5-{3-chloro-2-methyl-4-[2-(4-methylpiperazin-1-yl)ethoxy]phenyl}-6-(4-fluorophenyl)thieno[2,3-d]pyrimidin-4-yl]oxy}-3-(2-{[1-(3-methylbutyl)-1H-pyrazol-5-yl]methoxy}phenyl)propanoic acid], the figures for the IC50 (in assay [1] (setting [2]); at Mcl-1 protein (setting [3])) were 0.078 µM and 5.1e-09 M, respectively.

In the case of `Cc1c(-c2c(-c3cccn3C)sc3ncnc(OC(Cc4ccccc4)C(=O)O)c23)ccc(OCCN2CCN(C)CC2)c1Cl` [Example 503, (2R)-2-{[(5Sa)-5-{3-chloro-2-methyl-4-[2-(4-methylpiperazin-1-yl)ethoxy]phenyl}-6-(1-methyl-1H-pyrrol-2-yl)thieno[2,3-d]pyrimidin-4-yl]oxy}-3-phenylpropanoic acid], the IC50 in assay [1] (setting [2]) was 7.02 µM; at Mcl-1 protein (setting [4]), 5e-07 M.

As to `Cc1c(-c2c(-c3ccc(F)o3)sc3ncnc(OC(Cc4ccccc4OCc4ccnc(OCC(F)(F)F)n4)C(=O)O)c23)ccc(OCCN(C)C)c1Cl` [Example 203, (2R)-2-{[(5Sa)-5-{3-chloro-4-[2-(dimethylamino)ethoxy]-2-methylphenyl}-6-(5-fluorofuran-2-yl)thieno[2,3-d]pyrimidin-4-yl]oxy}-3-(2-{[2-(2,2,2-trifluoroethoxy)pyrimidin-4-yl]methoxy}phenyl)propanoic acid], the IC50 turned out to be 0.005 µM in assay [1] (setting [2]) and 9.1e-09 M at Mcl-1 protein (setting [3]).
